{"source": "patent US12527739B2", "about": "(Alcon Inc., priority 2022, dated 2026)", "key": {"[1]": {"molecular_target": "T1, M2 muscarinic receptor (Homo sapiens, UniProt P08172)", "T1 sequence (P08172 1-466)": "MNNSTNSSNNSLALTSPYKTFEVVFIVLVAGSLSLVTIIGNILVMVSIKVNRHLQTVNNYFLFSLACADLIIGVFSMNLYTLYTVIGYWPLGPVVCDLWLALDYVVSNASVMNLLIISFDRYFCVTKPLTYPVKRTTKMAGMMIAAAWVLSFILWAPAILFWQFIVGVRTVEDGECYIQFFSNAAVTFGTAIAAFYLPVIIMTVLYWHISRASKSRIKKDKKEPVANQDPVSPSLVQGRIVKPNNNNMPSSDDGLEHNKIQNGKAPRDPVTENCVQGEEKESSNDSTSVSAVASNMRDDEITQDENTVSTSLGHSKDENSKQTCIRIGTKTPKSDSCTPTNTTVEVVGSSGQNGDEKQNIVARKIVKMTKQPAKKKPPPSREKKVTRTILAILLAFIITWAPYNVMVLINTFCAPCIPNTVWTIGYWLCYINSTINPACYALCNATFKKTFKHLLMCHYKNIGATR", "assay": "Muscarinic receptor radioligand displacement binding, M2"}, "[2]": {"molecular_target": "T2, M5 muscarinic receptor (Homo sapiens, UniProt P08912)", "T2 sequence (P08912 1-532)": "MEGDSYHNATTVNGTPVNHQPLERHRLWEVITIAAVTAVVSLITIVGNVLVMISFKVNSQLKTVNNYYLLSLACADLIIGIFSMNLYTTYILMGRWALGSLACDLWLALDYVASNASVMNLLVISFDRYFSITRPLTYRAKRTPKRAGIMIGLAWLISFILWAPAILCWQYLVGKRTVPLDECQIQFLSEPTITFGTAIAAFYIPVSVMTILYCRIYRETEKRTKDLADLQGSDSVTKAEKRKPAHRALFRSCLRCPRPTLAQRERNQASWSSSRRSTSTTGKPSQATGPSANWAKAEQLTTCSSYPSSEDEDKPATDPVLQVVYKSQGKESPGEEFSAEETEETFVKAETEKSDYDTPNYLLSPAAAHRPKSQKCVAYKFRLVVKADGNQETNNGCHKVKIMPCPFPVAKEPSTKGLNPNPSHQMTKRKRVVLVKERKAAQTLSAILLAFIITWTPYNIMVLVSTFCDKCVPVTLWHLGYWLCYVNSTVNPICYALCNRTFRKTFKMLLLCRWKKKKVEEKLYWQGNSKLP", "assay": "Muscarinic receptor radioligand displacement binding, M5"}}}
{"smiles": "CN1C2CCC1CC(OC(=O)C(CO)(Cc1ccccc1)c1ccccc1)C2", "note": "(racemic) [Benzyl Atropine, benzyl atropine]", "values": [{"measurement": "binding to the receptor (in words)", "setting": "[1]", "value": "not to bind at all"}, {"measurement": "binding to the receptor (in words)", "setting": "[2]", "value": "not to bind at all"}]}
